Test results: patent US20250090614A1, “COMPOSITIONS AND METHODS FOR IMPROVING LUNG FUNCTION” (priority 2023, published 2025)

Assays:
Immunoglobulin A (IgA) = assay: IgA ELISA in bronchoalveolar lavage fluid of aged mice; format: in vivo, mouse; settings: aged C57BL/6 mice, 25 mg/kg p.o. each substance, 90 days
Method: The experiments were performed in old C57b1/6 mice (28-30 weeks). Table 1 discloses the groups of mice used for the experimentation. C57BL/6 mice were bred and naturally aged in a pathogen-free colony. Mice were group-housed six per cage for the treatment regimen and maintained on a 12-hr light-dark schedule with ad libitum access to food and water. All experiments were designed according to the principles of animal use for gerontological research (Miller, R. A., & Nadon, N. L. (2000). Principles of animal use for gerontological research. Journals of Gerontology. Series A, Biological Sciences and Medical Sciences, 55, B117-B123) [table] The above test substances were administered to the mice for a period of 90 days. Rapamycin was used as a positive control. After 90 days of administration experiments were performed to assess the respiratory muscle function, anatomical changes, cellular senescence and immunological changes. Bronchoalveolar lavage (BAL) fluids in healthy older subjects have consistently shown an increased proportion of neutrophils and lower percentage of macrophages compared with younger adults. There is age-associated decline in immunoglobins IgA and IgM. […] Immunoglobulin A (IgA) is the most abundant Ig in mucosac where it plays key roles in host defense against pathogens and in mucosal immunoregulation. […]

AMPK = AMPK ELISA in lung tissue homogenate of aged mice; format: in vivo, mouse; settings: aged C57BL/6 mice, 25 mg/kg p.o. each substance, 90 days
Method: The experiments were performed in old C57b1/6 mice (28-30 weeks). Table 1 discloses the groups of mice used for the experimentation. C57BL/6 mice were bred and naturally aged in a pathogen-free colony. Mice were group-housed six per cage for the treatment regimen and maintained on a 12-hr light-dark schedule with ad libitum access to food and water. All experiments were designed according to the principles of animal use for gerontological research (Miller, R. A., & Nadon, N. L. (2000). Principles of animal use for gerontological research. Journals of Gerontology. Series A, Biological Sciences and Medical Sciences, 55, B117-B123)
The above test substances were administered to the mice for a period of 90 days. Rapamycin was used as a positive control. After 90 days of administration experiments were performed to assess the respiratory muscle function, anatomical changes, cellular senescence and immunological changes.
Activation of AMPK delays senescence. Abnormal autophagy and aging promote each other, and AMPK is an important regulator of this process. AMPK is involved in the transduction of several aging-related signaling pathways. AMPK intervenes in the development of many age-related diseases.

## O=C(/C=C/c1ccc(O)c(O)c1)O[C@H](Cc1ccc(O)c(O)c1)C(=O)O [Rosmarinic acid]
Immunoglobulin A (IgA)
  expression of IgA: increased
AMPK
  AMPK levels: increased
